Reference: ChEMBL document CHEMBL1201862, “PubChem BioAssay data set” (2004)
Where “and” joins values, the source holds several entries; their conditions need not be identical. Identical values can stand only once. Calls of active or inactive are those of the source.

Legend:
[1] = A Cell Based Secondary Assay To Explore Cytotoxicity of Compounds that Sensitize Mycobacterium Tuberculosis to Beta-Lactam Antibiotics.; assay type: functional
CHO = experiment: cytotoxicity in TLR9-MyD88 CHO cells, dose response, cytotoxicity control for TLR9-MyD88 binding inhibitor project, cell-based, luminescence (AID 588339); assay type: functional, hamster; conditions: Cricetulus griseus;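 further: CHO cells stably coexpressing TLR9 and MyD88 fusions from primary screen; compound exposure lasted 48 hours before viability readout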
[2] = target: T1, Endoribonuclease toxin MazF (Escherichia coli K-12, UniProt P0AE70); experiment: MazF toxin RNase activators, dose response, biochemical, fluorescence, single-stranded RNA substrate, uHTS hits (AID 588481); assay type: functional
T1 sequence (P0AE70 whole entry): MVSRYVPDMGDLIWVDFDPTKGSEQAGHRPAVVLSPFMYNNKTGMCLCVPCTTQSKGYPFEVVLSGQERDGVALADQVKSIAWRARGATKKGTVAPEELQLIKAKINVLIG

Beta Lactamase = Beta Lactamase (Pseudomonas aeruginosa, UniProt Q932Y6); experiment: beta-lactamase reporter inhibitor potency, dose response, artefact control for TLR9-MyD88 binding inhibitor project, BLA reporter cells, FRET fluorescence (AID 588341); assay type: cell-based;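 further: cell based assay in CHO-K1 cells stably expressing beta-lactamase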
[3] = target: T1, Endoribonuclease toxin MazF; experiment: fluorescent RNA oligo signal without MazF, dose response, counter-screen for MazEF activator project, biochemical, fluorescence, single-stranded RNase substrate (AID 588502); assay type: functional
[4] = test system: Streptococcus sp. 'group A'; experiment: growth inhibition of control SK(-) GAS strain, dose response, counter-screen for streptokinase expression inhibitor project, luminescence, kanamycin, BacTiterGlo, confirmation (AID 1900); assay type: functional, organism-based
Streptokinase A = target: T2, Streptokinase A (Streptococcus pyogenes serotype M1, UniProt P10520); experiment: S. pyogenes streptokinase expression inhibitors, potency, dose response, plasminogen activation absorbance, OD405 (AID 1914); assay type: functional, Streptococcus pyogenes M1 GAS;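 further: secreted streptokinase activity via plasminogen activation per viability signal from cell pellet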
T2 sequence (P10520 whole entry): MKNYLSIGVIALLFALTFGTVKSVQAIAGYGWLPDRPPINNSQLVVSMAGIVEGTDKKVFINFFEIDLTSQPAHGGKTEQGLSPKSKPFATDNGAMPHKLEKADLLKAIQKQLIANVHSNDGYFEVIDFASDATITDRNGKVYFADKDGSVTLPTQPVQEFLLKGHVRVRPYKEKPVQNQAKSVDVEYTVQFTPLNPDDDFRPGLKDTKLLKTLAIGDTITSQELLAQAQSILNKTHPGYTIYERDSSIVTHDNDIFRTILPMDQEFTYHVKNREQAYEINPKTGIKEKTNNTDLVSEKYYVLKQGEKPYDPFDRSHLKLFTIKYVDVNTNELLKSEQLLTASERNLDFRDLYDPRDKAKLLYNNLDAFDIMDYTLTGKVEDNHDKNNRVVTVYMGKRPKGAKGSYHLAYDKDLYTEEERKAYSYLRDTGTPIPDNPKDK

Streptococcus = experiment: Group A Streptococcus viability loss, dose response, counter-screen for streptokinase expression inhibitor project, luminescence, BacTiterGlo (AID 1915); assay type: functional, organism-based;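 further: potency for reduction of bacterial viability or growth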
[5] = target: Photoreceptor-specific nuclear receptor (Homo sapiens, UniProt Q9Y5X4); assay type: functional, cell-based;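 further: CHO-S cells with Gal4-NCOR and VP16-NR2E3 two-hybrid luciferase reporter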
[6] = target: T3, Long-chain-fatty-acid--AMP ligase FadD28 (Mycobacterium tuberculosis, UniProt P9WQ59); experiment: Fluorescence polarization aasay to screen for inhibitors that compete for the binding of FadD28 to a bisubstrate Measured in Biochemical System Using Plate Reader - 2147-01_Inhibitor_Dose_CherryPick_Activity.; assay type: functional, Mycobacterium tuberculosis H37Rv
T3 sequence (P9WQ59 whole entry): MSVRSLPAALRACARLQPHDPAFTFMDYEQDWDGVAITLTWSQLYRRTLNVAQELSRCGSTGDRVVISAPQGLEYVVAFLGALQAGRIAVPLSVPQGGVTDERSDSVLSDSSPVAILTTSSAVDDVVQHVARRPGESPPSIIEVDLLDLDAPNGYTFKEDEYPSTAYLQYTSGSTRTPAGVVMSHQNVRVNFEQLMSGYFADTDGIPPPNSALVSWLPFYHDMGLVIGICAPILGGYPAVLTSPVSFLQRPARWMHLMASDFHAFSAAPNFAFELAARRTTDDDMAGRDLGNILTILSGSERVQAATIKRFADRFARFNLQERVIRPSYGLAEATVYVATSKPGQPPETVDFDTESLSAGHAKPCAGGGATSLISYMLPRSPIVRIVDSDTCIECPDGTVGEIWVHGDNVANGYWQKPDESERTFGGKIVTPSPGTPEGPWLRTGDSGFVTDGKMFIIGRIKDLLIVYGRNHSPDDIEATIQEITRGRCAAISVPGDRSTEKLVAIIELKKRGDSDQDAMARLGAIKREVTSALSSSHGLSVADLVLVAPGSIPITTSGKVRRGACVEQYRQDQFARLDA

Escherichia coli = experiment: microbe, parasite or virus in culture
CAAX prenyl protease 2 = CAAX prenyl protease 2 (Homo sapiens, UniProt Q9Y256); experiment: human Rce1 protease inhibitors, dose response, biochemical, yeast membranes, quenched-peptide fluorescence, cherry-pick (AID 588849)
[7] = target: Glycogen synthase kinase-3 alpha (Homo sapiens, UniProt P49840); experiment: Inhibition of Human GSK-3 alpha Activity Measured in Biochemical System Using Microfluidics - 2063-06_Inhibitor_Dose_DryPowder_Activity. [Related pubchem assays (depositor defined):AID2709]
[8] = target: Glycogen synthase kinase-3 beta (Homo sapiens, UniProt P49841); experiment: Inhibition of Human GSK-3 beta Activity Measured in Biochemical System Using Microfluidics - 2063-05_Inhibitor_Dose_DryPowder_Activity. [Related pubchem assays (depositor defined):AID2709]
Vero = Vero cell cytotoxicity, cytotoxicity control for flavivirus capping enzyme inhibitors (AID 588742); assay type: functional; conditions: Chlorocebus sabaeus
Genome polyprotein = Genome polyprotein (dengue virus type 2, UniProt P29990); experiment: Dengue-2 NS5 methyltransferase inhibitors, primary screen, biochemical, confirmation dose response (AID 588689); assay type: functional
[9] = target: T4, Microphthalmia-associated transcription factor (Homo sapiens, UniProt O75030); experiment: TRPM1 promoter luciferase signal decrease, dose response, MITF inhibitor project, cell-based, SK-MEL-5, cherry-picked, set 3 (AID 493073); assay type: functional
T4 sequence (O75030 whole entry): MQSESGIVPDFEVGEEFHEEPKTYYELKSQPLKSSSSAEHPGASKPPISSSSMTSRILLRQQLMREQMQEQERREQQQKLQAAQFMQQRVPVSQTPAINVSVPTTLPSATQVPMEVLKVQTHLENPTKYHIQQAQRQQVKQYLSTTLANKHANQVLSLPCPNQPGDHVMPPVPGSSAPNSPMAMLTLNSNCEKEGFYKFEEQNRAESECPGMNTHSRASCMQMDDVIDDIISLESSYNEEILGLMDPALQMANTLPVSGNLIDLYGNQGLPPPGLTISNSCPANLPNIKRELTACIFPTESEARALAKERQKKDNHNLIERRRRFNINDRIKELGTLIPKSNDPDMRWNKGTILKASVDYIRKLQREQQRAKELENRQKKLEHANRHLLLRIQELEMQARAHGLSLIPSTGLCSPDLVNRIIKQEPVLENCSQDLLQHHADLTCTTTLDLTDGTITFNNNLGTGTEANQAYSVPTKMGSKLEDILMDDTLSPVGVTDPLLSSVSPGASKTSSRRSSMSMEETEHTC

A-375 [10] = experiment: MITF: Counter assay: A375 proliferation Measured in Cell-Based System Using Plate Reader - 2084-03_Inhibitor_Dose_DryPowder_Activity. [Related pubchem assays (depositor defined):AID488944]; assay type: functional; conditions: Homo sapiens
A-375 [11] = experiment: A375 melanoma cell viability reduction, dose response, counter-screen for MITF modulator project, cherry-pick samples, set 2 (AID 540335); assay type: functional, cell-based; conditions: Homo sapiens
DNA topoisomerase = DNA topoisomerase (Yersinia pestis, UniProt A0A2S9PM60); experiment: Y. pestis Topo-I inhibitors, cleavage product readout, dose response, biochemical, cherry-pick (AID 588525)
[12] = target: Beta-2 adrenergic receptor (Homo sapiens, UniProt P07550); experiment: beta2AR agonists driving receptor internalization, dose response, cell-based, FAP fluorogen, flow cytometry, cherry pick 1 (AID 588763); assay type: functional
[13] = target: Dual specificity protein kinase CLK1 (Homo sapiens, UniProt P49759); experiment: CLK1 kinase inhibitors, off-target check, dose response, selectivity assay for Dyrk1A inhibitor project, biochemical, cherry-picked samples (AID 588811)
INS1 = experiment: protection from cytokine-induced mitochondrial depolarization, dose response, cell-based, INS-1E, JC-1 fluorescence ratio, dry powder (AID 488931); assay type: functional; conditions: Rattus norvegicus
Cytochrome P450 2C19 [14] = target: T5, Cytochrome P450 2C19 (Homo sapiens, UniProt P33261); experiment: qHTS Assay for Inhibitors and Substrates of Cytochrome P450 2C19. [Related pubchem assays: 410 ]; assay type: ADME; conditions: read-out: Potency
Cytochrome P450 2C19 [15] = target: T5, Cytochrome P450 2C19; experiment: Cytochrome panel assay with activity outcomes. Panel member name: p450-cyp2c19 Compounds with AC50 equal or less than 10 uM are considered active; assay type: functional; conditions: read-out: AC50
[16] = target: Dual specificity tyrosine-phosphorylation-regulated kinase 1A (Rattus norvegicus, UniProt Q63470); assay type: biochemical, Homo sapiens
[17] = target: T6, Carboxy-terminal domain RNA polymerase II polypeptide A small phosphatase 1 (Homo sapiens, UniProt Q9GZU7); experiment: inhibitors of CTDSP1, concentration-response testing, biochemical assay, absorbance-based, actives from ultra-high-throughput screening (AID 540297); assay type: functional
T6 sequence (Q9GZU7 whole entry): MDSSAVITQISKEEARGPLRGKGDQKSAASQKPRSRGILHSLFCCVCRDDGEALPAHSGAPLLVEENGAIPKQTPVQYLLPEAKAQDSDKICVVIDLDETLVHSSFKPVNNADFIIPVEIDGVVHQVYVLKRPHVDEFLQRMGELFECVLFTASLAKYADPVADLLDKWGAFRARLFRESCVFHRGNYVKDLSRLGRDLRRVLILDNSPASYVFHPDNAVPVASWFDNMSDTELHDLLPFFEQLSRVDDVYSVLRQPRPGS

[18] = target: T7, Rac GTPase-activating protein 1 (Homo sapiens, UniProt Q9H0H5); experiment: MgcRacGAP GTPase-activating activity inhibitors, confirmation, biochemical, ADP Hunter fluorescence, primary and confirmatory (AID 624330); assay type: functional
T7 sequence (Q9H0H5 whole entry): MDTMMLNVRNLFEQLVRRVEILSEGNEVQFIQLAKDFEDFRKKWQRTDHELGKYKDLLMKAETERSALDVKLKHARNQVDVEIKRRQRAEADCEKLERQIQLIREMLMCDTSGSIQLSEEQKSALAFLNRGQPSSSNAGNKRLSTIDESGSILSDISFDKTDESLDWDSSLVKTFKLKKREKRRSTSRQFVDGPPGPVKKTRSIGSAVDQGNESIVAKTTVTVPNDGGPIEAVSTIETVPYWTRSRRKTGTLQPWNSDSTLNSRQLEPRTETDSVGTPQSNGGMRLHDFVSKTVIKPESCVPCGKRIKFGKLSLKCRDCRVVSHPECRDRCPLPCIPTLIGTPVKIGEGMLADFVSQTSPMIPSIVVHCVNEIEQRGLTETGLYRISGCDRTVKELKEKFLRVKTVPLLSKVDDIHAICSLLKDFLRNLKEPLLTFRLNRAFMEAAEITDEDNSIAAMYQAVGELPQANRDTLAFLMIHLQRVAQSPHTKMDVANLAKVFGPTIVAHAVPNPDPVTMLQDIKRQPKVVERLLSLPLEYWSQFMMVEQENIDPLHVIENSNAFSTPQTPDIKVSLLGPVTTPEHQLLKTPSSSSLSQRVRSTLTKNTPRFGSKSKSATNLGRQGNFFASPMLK

Cytochrome P450 2C9 = Cytochrome P450 2C9 (Homo sapiens, UniProt P11712)
[19] = target: Voltage-gated inwardly rectifying potassium channel KCNH2 (Homo sapiens, UniProt Q12809); conditions: Potency;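 further: confirmatory quantitative high-throughput screen measuring inhibition of hERG channel activity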
[20] = target: Aryl hydrocarbon receptor (Homo sapiens, UniProt P35869); conditions: Potency;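 further: confirmatory quantitative high-throughput screen measuring activation of the AhR signaling pathway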
Sequence of Aryl hydrocarbon receptor (P35869 whole entry): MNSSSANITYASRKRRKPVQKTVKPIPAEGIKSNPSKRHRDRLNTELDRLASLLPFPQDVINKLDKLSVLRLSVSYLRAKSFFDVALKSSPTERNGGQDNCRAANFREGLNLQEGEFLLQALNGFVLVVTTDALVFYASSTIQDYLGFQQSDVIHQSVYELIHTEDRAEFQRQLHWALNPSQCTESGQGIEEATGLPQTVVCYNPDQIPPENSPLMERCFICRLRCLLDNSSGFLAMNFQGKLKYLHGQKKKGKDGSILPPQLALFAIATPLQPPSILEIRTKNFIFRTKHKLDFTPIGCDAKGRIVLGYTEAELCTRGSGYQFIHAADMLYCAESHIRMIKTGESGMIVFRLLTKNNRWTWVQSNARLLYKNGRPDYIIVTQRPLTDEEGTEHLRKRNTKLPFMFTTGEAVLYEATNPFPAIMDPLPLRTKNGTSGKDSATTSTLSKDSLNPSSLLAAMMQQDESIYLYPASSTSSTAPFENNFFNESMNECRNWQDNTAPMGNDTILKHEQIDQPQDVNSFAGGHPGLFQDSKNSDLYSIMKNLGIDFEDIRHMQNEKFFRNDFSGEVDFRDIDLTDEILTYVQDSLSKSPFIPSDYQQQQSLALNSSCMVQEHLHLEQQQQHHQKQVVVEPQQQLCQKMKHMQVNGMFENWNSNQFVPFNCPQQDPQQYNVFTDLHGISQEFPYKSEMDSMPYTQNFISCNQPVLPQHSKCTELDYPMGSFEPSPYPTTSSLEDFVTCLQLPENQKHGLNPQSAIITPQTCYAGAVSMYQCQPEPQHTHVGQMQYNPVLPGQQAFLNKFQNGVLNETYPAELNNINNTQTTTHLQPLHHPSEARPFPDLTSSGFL

T5 sequence (P33261 whole entry): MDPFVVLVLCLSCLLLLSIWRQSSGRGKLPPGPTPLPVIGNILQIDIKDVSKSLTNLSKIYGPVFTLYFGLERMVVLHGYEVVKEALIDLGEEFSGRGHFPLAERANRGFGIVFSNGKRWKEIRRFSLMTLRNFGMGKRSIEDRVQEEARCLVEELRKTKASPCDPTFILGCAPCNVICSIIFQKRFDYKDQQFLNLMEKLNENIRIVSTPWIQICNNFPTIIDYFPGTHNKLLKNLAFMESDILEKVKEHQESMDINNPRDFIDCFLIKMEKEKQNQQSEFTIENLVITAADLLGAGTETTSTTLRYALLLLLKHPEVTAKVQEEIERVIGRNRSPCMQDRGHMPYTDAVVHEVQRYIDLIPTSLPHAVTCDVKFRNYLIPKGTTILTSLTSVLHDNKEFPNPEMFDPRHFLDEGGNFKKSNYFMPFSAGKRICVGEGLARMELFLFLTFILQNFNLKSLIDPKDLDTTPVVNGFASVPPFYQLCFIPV
Sequence of Beta-2 adrenergic receptor (P07550 whole entry): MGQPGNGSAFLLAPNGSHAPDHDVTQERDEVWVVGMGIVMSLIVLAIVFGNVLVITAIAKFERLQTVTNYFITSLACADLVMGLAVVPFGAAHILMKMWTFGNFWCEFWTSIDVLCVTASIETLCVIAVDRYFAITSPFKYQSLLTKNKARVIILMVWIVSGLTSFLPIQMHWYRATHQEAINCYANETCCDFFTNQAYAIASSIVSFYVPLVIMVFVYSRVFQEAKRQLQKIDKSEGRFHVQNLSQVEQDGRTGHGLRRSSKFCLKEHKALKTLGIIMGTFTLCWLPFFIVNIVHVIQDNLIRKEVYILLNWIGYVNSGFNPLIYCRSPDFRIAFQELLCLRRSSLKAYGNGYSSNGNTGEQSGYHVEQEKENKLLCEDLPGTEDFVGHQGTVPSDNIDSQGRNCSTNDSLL
Sequence of Genome polyprotein (P29990 2492-3391 limits assumed): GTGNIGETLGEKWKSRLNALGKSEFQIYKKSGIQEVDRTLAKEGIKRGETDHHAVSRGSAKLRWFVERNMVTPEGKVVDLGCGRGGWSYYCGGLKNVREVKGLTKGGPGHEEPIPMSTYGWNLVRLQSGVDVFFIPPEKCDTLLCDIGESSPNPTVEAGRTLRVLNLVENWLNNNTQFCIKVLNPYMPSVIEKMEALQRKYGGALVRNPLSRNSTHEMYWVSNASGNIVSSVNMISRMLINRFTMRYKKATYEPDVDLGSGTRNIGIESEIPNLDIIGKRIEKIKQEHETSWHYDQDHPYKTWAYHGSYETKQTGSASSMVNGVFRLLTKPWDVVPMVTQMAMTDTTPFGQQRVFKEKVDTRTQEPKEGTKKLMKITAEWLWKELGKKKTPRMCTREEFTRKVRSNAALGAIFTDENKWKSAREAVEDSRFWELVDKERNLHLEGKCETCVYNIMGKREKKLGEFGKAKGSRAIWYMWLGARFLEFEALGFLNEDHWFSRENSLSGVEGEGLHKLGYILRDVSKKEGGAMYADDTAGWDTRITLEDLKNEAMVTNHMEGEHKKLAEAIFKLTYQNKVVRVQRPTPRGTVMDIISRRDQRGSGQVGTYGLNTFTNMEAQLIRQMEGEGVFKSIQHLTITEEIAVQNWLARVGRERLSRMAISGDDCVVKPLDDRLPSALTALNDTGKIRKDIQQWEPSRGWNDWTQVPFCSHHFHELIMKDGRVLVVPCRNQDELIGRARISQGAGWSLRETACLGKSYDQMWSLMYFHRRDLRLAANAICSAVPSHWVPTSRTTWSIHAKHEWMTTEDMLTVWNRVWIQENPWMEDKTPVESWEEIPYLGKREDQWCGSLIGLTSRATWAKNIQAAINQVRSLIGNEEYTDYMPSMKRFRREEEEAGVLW
Sequence of Glycogen synthase kinase-3 beta (P49841 whole entry): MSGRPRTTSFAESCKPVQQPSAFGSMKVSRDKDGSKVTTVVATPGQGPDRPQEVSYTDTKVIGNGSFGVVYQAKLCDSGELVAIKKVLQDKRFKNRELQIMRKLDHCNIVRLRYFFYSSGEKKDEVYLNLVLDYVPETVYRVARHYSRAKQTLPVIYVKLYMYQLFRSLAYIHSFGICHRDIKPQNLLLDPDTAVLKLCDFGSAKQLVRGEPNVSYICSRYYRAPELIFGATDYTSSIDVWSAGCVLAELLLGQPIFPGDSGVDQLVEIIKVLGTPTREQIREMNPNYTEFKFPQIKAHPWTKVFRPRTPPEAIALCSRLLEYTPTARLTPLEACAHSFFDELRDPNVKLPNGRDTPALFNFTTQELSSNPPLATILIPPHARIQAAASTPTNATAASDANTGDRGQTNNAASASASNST
Sequence of Beta Lactamase (Q932Y6 whole entry): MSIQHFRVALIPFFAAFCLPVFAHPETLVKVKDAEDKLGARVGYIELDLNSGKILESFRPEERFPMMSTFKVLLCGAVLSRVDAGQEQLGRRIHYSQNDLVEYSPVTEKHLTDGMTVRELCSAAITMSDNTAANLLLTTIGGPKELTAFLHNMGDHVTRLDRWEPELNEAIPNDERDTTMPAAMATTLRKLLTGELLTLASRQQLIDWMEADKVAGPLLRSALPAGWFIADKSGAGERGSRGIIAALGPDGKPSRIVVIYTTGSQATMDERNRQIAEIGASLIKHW
Sequence of Dual specificity protein kinase CLK1 (P49759 whole entry): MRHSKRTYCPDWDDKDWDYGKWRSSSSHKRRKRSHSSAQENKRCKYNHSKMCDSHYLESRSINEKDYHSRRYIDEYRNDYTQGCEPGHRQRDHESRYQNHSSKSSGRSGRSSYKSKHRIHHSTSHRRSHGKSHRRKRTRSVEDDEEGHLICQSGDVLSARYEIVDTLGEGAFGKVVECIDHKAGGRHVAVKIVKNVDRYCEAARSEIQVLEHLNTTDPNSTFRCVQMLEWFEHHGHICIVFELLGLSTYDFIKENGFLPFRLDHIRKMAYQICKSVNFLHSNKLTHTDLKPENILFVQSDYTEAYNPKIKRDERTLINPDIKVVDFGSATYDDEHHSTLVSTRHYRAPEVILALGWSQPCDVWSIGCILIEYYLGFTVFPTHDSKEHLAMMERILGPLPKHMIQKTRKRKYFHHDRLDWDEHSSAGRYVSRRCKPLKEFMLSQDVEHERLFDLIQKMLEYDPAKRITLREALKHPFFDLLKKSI
Sequence of Cytochrome P450 2C9 (P11712 whole entry): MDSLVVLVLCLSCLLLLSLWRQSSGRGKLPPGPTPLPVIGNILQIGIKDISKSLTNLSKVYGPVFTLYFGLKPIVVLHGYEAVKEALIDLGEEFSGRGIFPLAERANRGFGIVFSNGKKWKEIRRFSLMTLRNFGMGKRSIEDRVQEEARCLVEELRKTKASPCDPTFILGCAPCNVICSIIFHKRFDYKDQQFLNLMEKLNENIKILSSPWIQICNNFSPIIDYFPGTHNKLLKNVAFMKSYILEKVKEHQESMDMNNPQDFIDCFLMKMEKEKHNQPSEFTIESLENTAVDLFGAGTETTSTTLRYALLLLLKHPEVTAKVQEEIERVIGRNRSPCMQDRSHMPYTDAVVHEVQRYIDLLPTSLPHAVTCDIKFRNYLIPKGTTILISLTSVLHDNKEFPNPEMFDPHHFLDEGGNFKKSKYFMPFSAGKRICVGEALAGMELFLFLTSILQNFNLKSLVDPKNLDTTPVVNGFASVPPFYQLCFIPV
Sequence of Photoreceptor-specific nuclear receptor (Q9Y5X4 whole entry, the tested form may be a part): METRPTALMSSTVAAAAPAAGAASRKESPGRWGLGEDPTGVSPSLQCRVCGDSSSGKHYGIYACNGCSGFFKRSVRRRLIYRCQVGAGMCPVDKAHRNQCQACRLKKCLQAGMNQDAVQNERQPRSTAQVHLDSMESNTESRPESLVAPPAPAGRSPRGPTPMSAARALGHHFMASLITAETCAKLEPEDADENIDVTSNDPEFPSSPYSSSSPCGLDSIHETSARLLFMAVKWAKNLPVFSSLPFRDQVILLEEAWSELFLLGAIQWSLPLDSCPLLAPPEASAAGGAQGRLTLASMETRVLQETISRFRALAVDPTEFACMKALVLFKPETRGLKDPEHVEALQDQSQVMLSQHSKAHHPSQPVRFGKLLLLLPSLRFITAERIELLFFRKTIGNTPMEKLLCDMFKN

Nc1c(C(=O)c2cccs2)sc2nsc(SCCN3CCCCC3)c12
CC50 [1]: > 40 µM (active)
IC50 (CHO): > 49.8 µM (inactive)
EC50 [2]: 12 µM (active)
IC50 (Beta Lactamase): 9.89 µM (active)
EC50 [3]: > 99 µM (inactive)

CCCCCCCCCCCCN1[C@@H](CC(=O)O)c2cc(C(F)(F)F)ccc2S1(=O)=O
EC50 [4]: 2.22 µM (active)
EC50 (Streptokinase A): 2.28 µM (active)
EC50 (Streptococcus): 10.2 µM (active)
IC50 [5]: 5.7 µM (active)
AC50 [6]: 20.3 µM (active)
AC50 (Escherichia coli): 8.9 µM (active)

Cc1cccc(NC(=O)c2cc(S(=O)(=O)N3CCCCC3)c[nH]2)c1C
AC50 (CAAX prenyl protease 2): 0.197 µM (active)

COc1ccc2nc(NC(=O)CCNC(=O)c3ccccc3Cl)sc2c1
AC50 [7]: 8.01 µM (active)
AC50 [8]: 1.53 µM (active)

CCc1ccc(N2C(=O)c3sc4nnc(-c5ccccc5)c(=O)n4c3C2=O)cc1
CC50 (Vero): > 40 µM (active)
IC50 (Genome polyprotein): 48.5 µM (active)

O=C(Nc1ccc(OC(=O)N2CCCCC2)cc1)N1CCOCC1
AC50 [9]: 27.4 µM (active)
AC50 (A-375 [10]): > 35 µM (active)
AC50 (A-375 [11]): > 35 µM (active)

CC(C)CN(C(=O)COC(=O)c1cc2ccccc2cc1O)c1c(N)n(Cc2ccccc2)c(=O)[nH]c1=O
AC50 (DNA topoisomerase): 6.2 µM (active)

O=C(CCCCCn1c(=O)[nH]c2ccsc2c1=O)NCc1ccc(F)cc1
EC50 [12]: 0.0776 µM (active)

c1cncc(CNc2ccnc(-c3ccc4cn[nH]c4c3)n2)c1
AC50 [13]: 2.01 µM (active)

COc1ccc(S(=O)(=O)Nc2cccc3c2O[C@@H](CN(C)S(=O)(=O)c2ccc(OC)cc2)[C@H](C)CN([C@@H](C)CO)C3=O)cc1
AC50 (INS1): 73.4 µM (active)

O=c1c(O)c(-c2ccc(O)cc2)oc2cc(O)cc(O)c12 [KAEMPFEROL]
AC50 (Cytochrome P450 2C19 [14]): 10 µM (inconclusive)
AC50 (Cytochrome P450 2C19 [15]): 6.31 µM (inconclusive)
AC50 [16]: 1.26 µM (active)
IC50 [17]: 9.93 µM (active)
IC50 [18]: 44.5 µM (active)
AC50 (Cytochrome P450 2C9): 0.00126 µM (inconclusive)
AC50 [19]: 0.0022 µM (inconclusive)
AC50 [20]: 44.7 µM (inconclusive) and 56.2 µM (inconclusive)
